In PMC3738572, “Improved Bone Morphogenetic Protein-2 Retention in an Injectable Collagen Matrix Using Bifunctional Peptides” (PLoS ONE, 2013):
Like-named read-outs stand apart in the source and are kept apart here. Residues, ends and D or L forms follow the SMILES beside them. *: point of attachment. Biotin = O=C1N[C@H]2[C@H](CS[C@H]2CCCCC(=O)*)N1

Columns and labels:
rhBMP-2 = target: T1, rhBMP-2 (Homo sapiens, UniProt P12643); assay: BMP-2 peptide binding assay (biotinylated peptide immobilized on streptavidin plate, rhBMP-2 titrated)
T1 construct: purchased R&D Systems 355-BM/CF
T1 sequence (P12643 283-396): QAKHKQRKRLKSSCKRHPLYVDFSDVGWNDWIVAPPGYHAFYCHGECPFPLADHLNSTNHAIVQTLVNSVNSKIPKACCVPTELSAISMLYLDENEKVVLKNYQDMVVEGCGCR
Description: To measure the ability of a BMP-binding peptide to capture its target growth factor out of buffer or a complex biological solution such as plasma, biotinylated peptides were immobilized onto a streptavidin-coated 96 well plate. Varying low nanomolar concentrations of BMP-2 were “spiked” into human plasma or Tris-buffered saline (0.5 M NaCl), 0.05% Tween-20 (TBST) and added to the peptide-containing plates. […] Adding p-NPP produced a colored reactant, which was quantified using a SpectroMax (Molecular Devices) plate reader at 405 nm.

rhBMP-6 = target: T2, rhBMP-6 (Homo sapiens, UniProt P22004); assay: Peptide cross-reactivity to other growth factors; format: binding; settings: Figure 5; growth factor titrated in TBST for 1 h on immobilized peptide; antibody and p-NPP detection; read-out: EC50, BMP-6
T2 sequence (P22004 375-513): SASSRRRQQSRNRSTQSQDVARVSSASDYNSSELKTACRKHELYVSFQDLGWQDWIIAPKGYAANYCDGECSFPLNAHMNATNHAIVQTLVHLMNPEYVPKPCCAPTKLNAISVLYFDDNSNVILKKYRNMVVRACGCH
Protocol: (§1) To measure the ability of a BMP-binding peptide to capture its target growth factor out of buffer or a complex biological solution such as plasma, biotinylated peptides were immobilized onto a streptavidin-coated 96 well plate. Varying low nanomolar concentrations of BMP-2 were “spiked” into human plasma or Tris-buffered saline (0.5 M NaCl), 0.05% Tween-20 (TBST) and added to the peptide-containing plates. After 1 hr incubation at room temperature (RT), plates were washed and incubated with an anti-BMP-2 antibody followed by a goat anti-mouse secondary antibody conjugated to alkaline phosphatase. Adding p-NPP produced a colored reactant, which was quantified using a SpectroMax (Molecular Devices) plate reader at 405 nm.
(§2) Figure 5 Peptide cross-reactivity to other growth factors. Peptides B-17 (A) and B-18 (B) were immobilized on a streptavidin-coated plate, and a range of concentrations of growth factors in the TGF-β superfamily were titrated onto the plate in TBST for 1 h. Growth factor binding was analyzed using antibody and p-NPP detection. […] Peptide B-17 also cross-reacted with rhBMP-3, rhBMP-5, and rhBMP-12. The peptides had lower affinities for all other growth factors tested. Data are presented as the absorbance read at 405 nm.

rhBMP-7 = target: T3, rhBMP-7 (Homo sapiens, UniProt P18075); assay: Peptide cross-reactivity to other growth factors; format: binding; settings: Figure 5; growth factor titrated in TBST for 1 h on immobilized peptide; antibody and p-NPP detection; read-out: EC50, BMP-7
T3 sequence (P18075 293-431): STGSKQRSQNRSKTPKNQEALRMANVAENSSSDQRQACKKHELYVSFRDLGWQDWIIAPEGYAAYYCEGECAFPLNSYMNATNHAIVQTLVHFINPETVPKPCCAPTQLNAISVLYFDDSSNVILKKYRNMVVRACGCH
Protocol: as §1, §2

[1] = target: T4, rhBMP-2 binding to injectable collagen gel (Homo sapiens, UniProt P12643); assay: Injectable collagen gel binding assay; settings: tested for the ability to bind BMP-2 to a collagen gel
T4 construct: purchased R&D Systems 355-BM/CF
T4 sequence (P12643 283-396): T1 sequence (P12643 283-396)
Protocol: The injectable collagen gel (0.1 mL) was aliquoted into a polypropylene plate. The plate was blocked with 150 µl of 1% BSA in TBS for 30 min. After spinning for 2 min, the supernatant was removed without disrupting the collagen gel. […] The wells were then washed, and an alkaline phosphatase labeled goat anti-mouse secondary antibody was added. After incubation and washing, binding was measured using the chromogenic reagent p-NPP, and absorbance was read at 405 nm.

ectopic bone formation = assay: In vivo ectopic bone formation study; parameters: species or system rat
Protocol: Male Sprague Dawley rats (150–175 g) were obtained from […], Charles River Laboratories (Raleigh, NC) and acclimated prior to surgery. The surgery was performed under general anesthesia by weight-adapted intraperitoneal injection of Xylazine 2% (Medistar; 12 mg/kg body weight) and Ketamine hydrochloride (Ketaset; 100 mg/mL; 80 mg/kg body weight). The thorax and abdomen were shaved and scrubbed with Betadine and alcohol. Using aseptic technique, two 5 mm incisions were made at the midline so that two subcutaneous pouches were prepared by blunt dissection. […] Each rat received two injections and a total of 20 animals were used in the study. […] In those experiments, rats were implanted with collagen gel containing either 1 or 5 μg of BMP-2.
The sites containing the injected material were explanted at two weeks and fixed in 10% neutral buffered formalin. The samples were placed in Formical 2000 decalcifier (American Mastertech) for 24 hours followed by Cal-arrest neutralizing solution for one hour. The tissue samples were processed in a Thermo-Electron, Shandon Excelsior Automated Tissue Processor for 14 hours. The process includes additional fixation in 10% buffered neutral formalin, dehydration through an ethanol gradient, and clearing with xylene at 40°C. Tissue was then embedded on a Leica EF 1140 H tissue embedding center in paraffin blocks for sectioning. Paraffin blocks were sectioned at 5 microns on a Reichert-Jung RM2065 microtome using Accu-Edge High Profile disposable stainless steel microtome blades. Three serial sections at intervals of 30 microns were obtained and placed on Super-frost Plus slides for hematoxylin and eosin staining (H&E). Staining was performed using a Sakura DRS-601 automatic slide stainer with a regressive Harris hematoxylin and Eosin Y Alcoholic for histological and morphological examination.
Histological sections were scored based on three criteria: Bone Cross-Sectional Area, Bone Maturity and Cellular Activity. Each segment was scored based on a 0–4 point scale by two observers (blinded to the study) who evaluated the entire implant under 10× magnification.

[2] = read-out: EC50 of BMP-2 binding to immobilized peptide
[3] = Figure 5, growth factor titrated in TBST for 1 h on immobilized peptide, antibody and p-NPP detection, read-out: EC50, BMP-2 (cross-reactivity experiment)
[4] = group median, 2 μg rhBMP-2 with 50-fold molar excess of peptide in collagen gel, rat, 2 weeks, p<.0001 vs no peptide

CC(C)C[C@H](NC(=O)[C@H](C)NC(=O)[C@H](CO)NC(=O)[C@H](Cc1ccccc1)NC(=O)[C@H](CO)NC(=O)[C@H](CO)NC(=O)[C@H](Cc1ccccc1)NC(=O)[C@H](C)NC(=O)[C@H](CO)NC(=O)[C@H](CC(=O)O)NC(=O)[C@H](CO)NC(=O)[C@@H](N)CO)C(=O)N[C@@H](CCC(=O)O)C(=O)NCC(=O)N[C@@H](CO)C(=O)N[C@H](C(=O)N[C@H](C(=O)O)C(C)C)C(C)C [Peptide B-6] (H-SSDSAFSSFSALEGSVV-OH)
EC50 (rhBMP-2): 1.4 nM

CC(C)C[C@H](NC(=O)[C@H](C)NC(=O)[C@H](CO)NC(=O)[C@H](Cc1ccccc1)NC(=O)[C@H](CO)NC(=O)[C@@H](NC(=O)[C@H](Cc1c[nH]c2ccccc12)NC(=O)[C@H](C)NC(=O)CNC(=O)[C@H](C)NC(=O)[C@H](C)NC(=O)[C@H](C)NC(=O)[C@H](CCC(=O)O)NC(=O)CNC(=O)CN)C(C)C)C(=O)N[C@@H](CCC(=O)O)C(=O)N[C@@H](CO)C(=O)O [Peptide B-7] (H-GGEAAAGAWVSFSALES-OH)
EC50 (rhBMP-2; [2]): 29 nM

CC(C)C[C@H](NC(=O)[C@H](CO)NC(=O)[C@H](CO)NC(=O)[C@H](Cc1ccccc1)NC(=O)[C@@H](NC(=O)[C@H](CCC(=O)O)NC(=O)[C@@H](N)Cc1c[nH]c2ccccc12)C(C)C)C(=O)N[C@@H](CCC(=O)O)C(=O)N[C@@H](CO)C(=O)NCC(=O)N[C@@H](CO)C(=O)N[C@H](C(=O)NCC(=O)N[C@@H](C)C(=O)NCC(=O)N[C@@H](C)C(=O)NCC(=O)O)C(C)C [Peptide B-8] (H-WEVFSSLESGSVGAGAG-OH)
EC50 (rhBMP-2; [2]): 5.4 nM

CC(C)C[C@H](NC(=O)[C@@H]1CCCN1C(=O)[C@H](Cc1ccccc1)NC(=O)[C@H](CCCNC(=N)N)NC(=O)[C@H](CC(C)C)NC(=O)[C@@H]1CCCN1C(=O)[C@H](CCC(=O)O)NC(=O)[C@@H](N)Cc1ccccc1)C(=O)N[C@@H](CCCCN)C(=O)NCC(=O)N[C@H](C(=O)N1CCC[C@H]1C(=O)N[C@H](C(=O)O)C(C)C)C(C)C [Peptide B-9] (H-FEPLRFPLKGVPV-OH)
EC50 (rhBMP-2; [2]): 5.7 nM

CC(C)C[C@H](NC(=O)[C@H](CO)NC(=O)[C@H](CO)NC(=O)[C@H](Cc1ccccc1)NC(=O)[C@H](C)NC(=O)[C@H](CO)NC(=O)[C@H](Cc1ccccc1)NC(=O)[C@H](CO)NC(=O)CNC(=O)CNC(=O)[C@@H](N)CC(=O)O)C(=O)N[C@H](C(=O)N[C@@H](Cc1c[nH]c2ccccc12)C(=O)N[C@@H](C)C(=O)N[C@@H](C)C(=O)N[C@@H](CC(=O)O)C(=O)N[C@@H](CO)C(=O)O)C(C)C [Peptide B-10] (H-DGGSFSAFSSLVWAADS-OH)
EC50 (rhBMP-2; [2]): 26 nM

CC(C)C[C@H](NC(=O)[C@H](C)NC(=O)[C@H](CCC(=O)O)NC(=O)[C@H](Cc1ccccc1)NC(=O)[C@H](C)NC(=O)[C@H](CC(=O)O)NC(=O)[C@H](Cc1c[nH]c2ccccc12)NC(=O)[C@H](C)NC(=O)[C@H](CO)NC(=O)[C@H](C)NC(=O)[C@@H](NC(=O)[C@@H](NC(=O)CNC(=O)[C@H](Cc1c[nH]c2ccccc12)NC(=O)[C@@H](N)CC(=O)O)C(C)C)C(C)C)C(=O)N[C@@H](CC(=O)O)C(=O)N[C@@H](C)C(=O)O [Peptide B-11] (H-DWGVVASAWDAFEALDA-OH)
EC50 (rhBMP-2; [2]): 327 nM

CC(C)C[C@H](NC(=O)[C@H](CC(=O)O)NC(=O)[C@@H](NC(=O)[C@@H](N)CO)C(C)C)C(=O)N[C@@H](Cc1ccc(O)cc1)C(=O)N[C@@H](Cc1ccccc1)C(=O)N1CCC[C@H]1C(=O)N[C@@H](CC(C)C)C(=O)N[C@@H](CCCCN)C(=O)NCC(=O)N[C@@H](CC(=O)O)C(=O)N[C@H](C(=O)N[C@H](C(=O)O)C(C)C)C(C)C [Peptide B-12] (H-SVDLYFPLKGDVV-OH)
EC50 (rhBMP-2; [2]): 12 nM

CC(C)C[C@H](NC(=O)[C@H](CO)NC(=O)[C@H](CO)NC(=O)[C@H](Cc1ccccc1)NC(=O)[C@H](C)NC(=O)[C@H](CCC(=O)O)NC(=O)[C@H](Cc1c[nH]c2ccccc12)NC(=O)[C@H](C)NC(=O)CNC(=O)CNC(=O)CN)C(=O)N[C@@H](CO)C(=O)NCC(=O)N[C@@H](CO)C(=O)N[C@@H](CCCNC(=N)N)C(=O)N[C@H](C(=O)NCC(=O)N[C@@H](CO)C(=O)N[C@@H](CO)C(=O)NCC(=O)N[C@@H](CCCCNC(=O)CCCC[C@@H]1SC[C@@H]2NC(=O)N[C@@H]21)C(=O)O)C(C)C [Peptide B-17] (H-GGGAWEAFSSLSGSRVGSSGK(Biotin)-OH)
EC50 (rhBMP-2; [3]): 1.4 nM
EC50 (rhBMP-6): 1.3 nM
EC50 (rhBMP-7): 17 nM

CC(C)C[C@H](NC(=O)[C@H](C)NC(=O)CNC(=O)CN)C(=O)NCC(=O)N[C@@H](Cc1ccccc1)C(=O)N1CCC[C@H]1C(=O)N[C@@H](CC(C)C)C(=O)N[C@@H](CCCCN)C(=O)NCC(=O)N[C@@H](CCC(=O)O)C(=O)N[C@H](C(=O)N[C@H](C(=O)N[C@@H](CCC(=O)O)C(=O)NCC(=O)N[C@@H](Cc1c[nH]c2ccccc12)C(=O)N[C@@H](C)C(=O)NCC(=O)N[C@@H](CO)C(=O)N[C@@H](CO)C(=O)NCC(=O)N[C@@H](CCCCNC(=O)CCCC[C@@H]1SC[C@@H]2NC(=O)N[C@@H]21)C(=O)O)C(C)C)C(C)C [Peptide B-18] (H-GGALGFPLKGEVVEGWAGSSGK(Biotin)-OH)
EC50 (rhBMP-2; [3]): 2.8 nM
EC50 (rhBMP-2; [2]): 1.9 nM
EC50 (rhBMP-6): 6.5 nM
EC50 (rhBMP-7): 16.2 nM

SWWGFWNGSAAPVWSR-GSSG-AGALGFPLKGEVVEGWA-GSSGK(Biotin) [BC-2]
Binding of BMP-2 by bifunctional peptide [1]: bound BMP-2

SWWGFWNGSAAPVWSR-GSSG-AGAWEAFSSLSGSRV-GSSGK(Biotin) [BC-1]
Binding of BMP-2 by bifunctional peptide [1]: bound BMP-2
Median histology score: Bone area (ectopic bone formation; [4]): 2.1 (26–35% of Implant Shows Evidence of Bone Formation)
Median histology score: Bone maturity (ectopic bone formation; [4]): 3.0
Median histology score: Osteogenic cellular activity (ectopic bone formation; [4]): 2.6
Bone formation in preliminary experiments (ectopic bone formation; rats implanted with collagen gel containing 1 or 5 μg of BMP-2, with or without peptide, data not shown): bone formation at both doses
